Tests used:
PYL4 = target: T1, PYL4 (Arabidopsis thaliana, UniProt O80920); test: receptor-mediated PP2C (HAB1) inhibition in vitro assay; format: biochemical; conditions: compound at 25 μM; control without agonist = 100%
T1 construct: 6X-His; made in house; host or cells: E. coli BL21[DE3]pLysS
T1 sequence (O80920 1-207): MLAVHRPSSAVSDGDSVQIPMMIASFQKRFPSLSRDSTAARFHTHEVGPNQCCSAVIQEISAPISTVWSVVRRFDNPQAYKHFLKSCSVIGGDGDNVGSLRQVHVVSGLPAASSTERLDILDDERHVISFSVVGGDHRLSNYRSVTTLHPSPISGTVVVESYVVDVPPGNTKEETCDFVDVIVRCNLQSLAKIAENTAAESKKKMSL
T1 sequence (Q9CAJ0 23-511 partner): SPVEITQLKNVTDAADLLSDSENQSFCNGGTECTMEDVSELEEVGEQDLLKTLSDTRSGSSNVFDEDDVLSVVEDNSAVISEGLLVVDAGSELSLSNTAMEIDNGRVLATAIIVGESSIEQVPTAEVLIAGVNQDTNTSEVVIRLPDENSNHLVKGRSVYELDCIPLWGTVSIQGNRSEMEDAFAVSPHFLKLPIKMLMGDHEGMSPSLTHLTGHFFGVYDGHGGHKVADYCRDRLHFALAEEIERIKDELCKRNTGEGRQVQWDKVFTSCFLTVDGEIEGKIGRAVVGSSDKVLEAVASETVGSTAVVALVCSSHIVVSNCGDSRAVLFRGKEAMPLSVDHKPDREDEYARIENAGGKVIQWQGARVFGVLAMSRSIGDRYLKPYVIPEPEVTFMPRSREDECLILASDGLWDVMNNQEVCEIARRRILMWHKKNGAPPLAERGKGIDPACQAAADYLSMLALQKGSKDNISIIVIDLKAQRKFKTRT
Protocol: (§1) A family of 62 structurally related N-acyl sulfonamides (Tables I-V) were tested for ABA agonist activity using multiple receptor-mediated PP2C inhibition in vitro assays (Park et al., 2009). […] The constructs utilized for protein expression have been previously described (Okamoto et al. 2013). For constructs encoding 6X-His-fusion proteins (all receptors except PYL11), the coding sequences were of the receptors were cloned in the vector pET28, expressed in BL21[DE3]pLysS E. coli host cells at 18° C. overnight, and subsequently purified from sonicated lysates using Ni-NTA agarose (Qiagen, USA), according to the manufacturer's instructions. PYL11 was constructed as a maltose binding protein fusion in the vector pMAL-c, expressed in BL21┌DE3┐pLysS host cells and purified using amylose resin (New England Biolabs) as described by the manufacturer. Recombinant GST-HAB1 was expressed and purified as described previously (Park et al., 2009). PP2C activity assays were conducted using the fluorogenic phosphatase substrate 4-methylumbelliferyl-phosphate. Recombinant receptors and HAB1 were used to examine ligand-induced PP2C inactivation in response to multiple test compounds. Enzyme inhibition assays were conducted using the following assay conditions: 50 nM GST-PP2C, 100 mM Tris-OAc (pH 7.9), 100 mM NaCl, 1 mM MnCl2, 1% β-mercaptoethanol. […] Because of this, the ratio of each receptor used in the PP2C-inhibitions assays was established empirically as the minimum fold-excess of receptor required to elicit maximal PP2C inhibition at a saturating ABA concentration (10 μM).
(§2) Based on this criterion, we used a ratio of 2:1 receptor in the assays described herein.
(§3) Using the above assay conditions, compounds were tested at 25 μM for agonist activity on PYL4, PYL5, PYL8 and PYL9. […] Consequently, a subset of the compounds was tested at multiple concentrations against 11 receptors so that IC50 values and receptor selectivity profiles could be examined. […] Thus, the N-acylsulfonamide agonists disclosed are selective for monomeric receptors.
(§4) Additional compounds were tested for biological activity following the procedures of Example 1 with minor modifications.
(§5) For these in vitro receptor assays, the compounds listed were tested in in vitro PP2C inhibition assays with 50 uM of the test compound except for ABA (10 uM). IC50s were calculated from dose curves, but only for selected compounds.

PYL5 = target: T2, PYL5 (Arabidopsis thaliana, UniProt Q9FLB1); test: as above; format: biochemical; conditions: compound at 25 μM; control without agonist = 100%
T2 construct: 6X-His; made in house; host or cells: E. coli BL21[DE3]pLysS
T2 sequence (Q9FLB1 1-203): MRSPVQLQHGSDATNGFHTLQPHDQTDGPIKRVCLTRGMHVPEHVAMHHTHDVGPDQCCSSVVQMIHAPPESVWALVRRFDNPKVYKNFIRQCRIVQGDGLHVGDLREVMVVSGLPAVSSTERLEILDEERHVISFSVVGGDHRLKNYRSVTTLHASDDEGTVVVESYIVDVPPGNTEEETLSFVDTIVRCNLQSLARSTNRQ
T2 sequence (Q9CAJ0 23-511 partner): T1 sequence (Q9CAJ0 23-511 partner)
Protocol: as §1, §2, §3, §4, §5

PYL8 = target: T3, PYL8 (Arabidopsis thaliana, UniProt Q9FGM1); test: as above; format: biochemical; conditions: compound at 25 μM; control without agonist = 100%
T3 construct: 6X-His; made in house; host or cells: E. coli BL21[DE3]pLysS
T3 sequence (Q9FGM1 1-188): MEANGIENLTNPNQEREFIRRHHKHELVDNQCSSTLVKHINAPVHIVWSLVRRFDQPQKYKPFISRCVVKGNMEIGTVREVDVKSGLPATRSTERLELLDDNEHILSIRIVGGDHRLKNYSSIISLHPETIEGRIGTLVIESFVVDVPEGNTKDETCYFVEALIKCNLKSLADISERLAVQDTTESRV
T3 sequence (Q9CAJ0 23-511 partner): T1 sequence (Q9CAJ0 23-511 partner)
Protocol: as §1, §2, §3, §4, §5

PYL9 = target: T4, PYL9 (Arabidopsis thaliana, UniProt Q84MC7); test: as above; format: biochemical; conditions: compound at 25 μM; control without agonist = 100%
T4 construct: 6X-His; made in house; host or cells: E. coli BL21[DE3]pLysS
T4 sequence (Q84MC7 1-187): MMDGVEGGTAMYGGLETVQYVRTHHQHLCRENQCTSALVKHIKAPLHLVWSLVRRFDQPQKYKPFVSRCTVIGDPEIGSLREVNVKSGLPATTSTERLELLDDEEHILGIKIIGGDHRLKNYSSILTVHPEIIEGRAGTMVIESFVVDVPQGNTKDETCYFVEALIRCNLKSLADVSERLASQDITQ
T4 sequence (Q9CAJ0 23-511 partner): T1 sequence (Q9CAJ0 23-511 partner)
Protocol: as §1, §2, §3, §4, §5

[1] = test system: Arabidopsis seed germination and hypocotyl growth; test: Arabidopsis seed germination and hypocotyl growth; format: in vivo; conditions: − = none
Protocol: We germinated seeds from wild type on ½× strength Murashige and Skoog salts growth medium containing either 10 or 50 μM for all 62 compounds as well as 1 μM (+)-ABA and mock controls. […] To investigate if the any of the compounds are sufficient to control vegetative ABA responses, we treated three week old Arabidopsis plants with aqueous solutions containing 0.02% Silwet and either 50 μM of selected N-acylsulfonamides, 50 μM ABA or 0.1% DMSO (the carrier solvent for the compounds tested). The leaf temperatures were subsequently examined using a thermal imaging camera 24 hours after treatment. It is well known that ABA-induced guard cell closure reduces transpiration, which leads to increases in leaf temperatures. It has been estimated that a 1° C. increase in leaf temperature correlates with a decrease in transpiration rates by approximately 50% (Sirault et al., 2009). Since guard cell aperture is the primary determinant of transpiration rates, thermal imaging is a useful way to indirectly infer relative transpiration rates and, indirectly, relative degrees of guard cell opening at the whole plant level.
as §4
For the germination inhibition experiment, the compounds were tested at 10 and 50 uM. The amounts shown are the lowest of the two concentrations that either inhibited germination or hypocotyl growth in wells where seeds germinated.
For the germination test, the compounds were tested at 1, 5, 10, 25 and 50 uM. The amounts shown are the lowest of the concentrations that either inhibited germination or hypocotyl growth in the wells where seeds germinated.

Compound	PP2C Activity (25 μm) PYL4 (PYL4)	PP2C Activity (25 μm) PYL5 (PYL5)	PP2C Activity (25 μm) PYL8 (PYL8)	PP2C Activity (25 μm) PYL9 (PYL9)	remaining activity at 25 µM (PYL4)	remaining activity at 25 µM (PYL5)	remaining activity at 25 µM (PYL8)	remaining activity at 25 µM (PYL9)	Hypocotyl Growth Inhibition ([1]; Germination Inhibition II, tested at 10 and 50 uM, lowest concentration that inhibited hypocotyl growth in wells where seeds germinated)	minimal effective concentration ([1]; Table VIII, tested at 10 or 50 μM, lowest inhibiting concentration, read-out: Hypocotyl Growth Inhibition)
CCc1ccc(C(C)(C)C(=O)NS(=O)(=O)Cc2ccc(C#N)cc2)cc1 [Compound 20]	95%	88%	104%	98%						
N#Cc1ccc(CS(=O)(=O)NC(=O)C2(c3ccc(Br)cc3)CCC2)cc1 [Compound 31]	97%	77%	80%	74%						
Cc1cc(C)cc(C2(C(=O)NS(=O)(=O)Cc3ccc(C#N)cc3)CC2)c1 [Compound 36]	91%	34%	98%	94%						
CC(C)(C)c1ccc(C2(C(=O)NS(=O)(=O)Cc3ccc(C#N)cc3)CC2)cc1 [Compound 40]	92%	101%	106%	103%						
N#Cc1ccc(CS(=O)(=O)NC(=O)C2(c3ccc(C(F)(F)F)cc3)CC2)cc1 [Compound 45]	93%	30%	74%	53%						
N#Cc1ccc(CS(=O)(=O)NC(=O)C2(c3ccccc3F)CC2)cc1 [Compound 47]	95%	28%	86%	75%						
CCOc1ccc(C2(C(=O)NS(=O)(=O)Cc3ccc(C#N)cc3)CC2)cc1 [Compound 52]	94%	99%	91%	98%						

Second part, led by results:

PP2C Activity (25 μm) PYL4 (PYL4)	PP2C Activity (25 μm) PYL5 (PYL5)	PP2C Activity (25 μm) PYL8 (PYL8)	PP2C Activity (25 μm) PYL9 (PYL9)	remaining activity at 25 µM (PYL4)	remaining activity at 25 µM (PYL5)	remaining activity at 25 µM (PYL8)	remaining activity at 25 µM (PYL9)	Compound	Hypocotyl Growth Inhibition ([1]; Germination Inhibition II, tested at 10 and 50 uM, lowest concentration that inhibited hypocotyl growth in wells where seeds germinated)	minimal effective concentration ([1]; Table VIII, tested at 10 or 50 μM, lowest inhibiting concentration, read-out: Hypocotyl Growth Inhibition)
96%	106%	89%	83%					CC(C)(C(=O)NS(=O)(=O)Cc1ccccc1C#N)c1ccccc1 [Compound 1]	50 µM	50 µM
93%	44%	62%	58%					CC(C)(C(=O)NS(=O)(=O)Cc1ccc(C#N)cc1)c1ccc(C(F)(F)F)cc1 [Compound 11]		
97%	103%	108%	108%					CC(C)COc1ccc(C(C)(C)C(=O)NS(=O)(=O)Cc2ccc(C#N)cc2)cc1 [Compound 14]		
89%	89%	98%	102%					COc1ccc(C(C)(C)C(=O)NS(=O)(=O)Cc2ccc(C#N)cc2)cc1OC [Compound 21]		
96%	95%	72%	49%					CC(C)(C(=O)NS(=O)(=O)Cc1ccc2cccnc2c1)c1ccccc1 [Compound 55]		
94%	105%	106%	108%					CC(=O)N1CCC(C(=O)NS(=O)(=O)Cc2ccc(C#N)cc2)(c2ccccc2)CC1 [Compound 56]		
91%	100%	56%	39%					N#Cc1ccc(CS(=O)(=O)NC(=O)C2(c3cccc(F)c3)CCOCC2)cc1 [Compound 57]		
96%	83%	84%	83%					N#Cc1ccc(CS(=O)(=O)NC(=O)C2(c3cccc(Cl)c3)CCOCC2)cc1 [Compound 58]		
92%	65%	97%	98%					N#Cc1ccc(CS(=O)(=O)NC(=O)C2(c3ccc(C(F)(F)F)cc3)CCOCC2)cc1 [Compound 59]		
90%	70%	101%	101%					N#Cc1ccc(CS(=O)(=O)NC(=O)C2(c3ccccc3)CCN(S(=O)(=O)c3ccccc3)CC2)cc1 [Compound 60]		
				98%	103%	100%	100%	O=C(NS(=O)(=O)Cc1cccc2cccnc12)C1(c2ccccc2)CC1 [Compound 62]		

Source: patent US10757937B2, “Sulfonamides that activate ABA receptors” (The Regents of the University of California, priority 2014, dated 2020)
